In PubChem BioAssay (NCI):
“And” between values parts separate entries of the source, which are not always exact repeats. Identical values can stand only once.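 Test compounds were applied to cells in 96-well plates for 48 hours at 5 doses. At the GI50, growth is halved. TGI denotes the concentration required for complete inhibition of growth.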

Experiments:
Experiment in all cases: NCI anticancer screen, dose series, 48 h
[1] = tested on: 786-0 renal
[2] = tested on: BT-549 breast
[3] = tested on: CAKI-1 renal
[4] = tested on: HL-60(TB) leukemia
[5] = tested on: HT29 colon
[6] = tested on: K-562 leukemia
[7] = tested on: M14 melanoma
[8] = tested on: NCI-H460 lung
[9] = tested on: SK-OV-3 ovarian
[10] = tested on: SN12C renal

Row | SMILES | GI50 [1] [µM] | TGI [1] [µM] | GI50 [2] [µM] | TGI [2] [µM] | GI50 [3] [µM] | TGI [3] | GI50 [4] [µM] | TGI [4] [µM] | GI50 [5] [µM] | TGI [5] [µM] | GI50 [6] [µM] | TGI [6] | GI50 [7] [µM] | TGI [7] [µM] | GI50 [8] [µM] | TGI [8] [µM] | GI50 [9] [µM] | TGI [9] | GI50 [10] [µM] | TGI [10]
1 | CC(=O)O[C@H](C[C@H](C(C)C)N(C)C(=O)[C@@H](NC(=O)[C@H]1CCCCN1C)C(C)C)c1nc(C(=O)N[C@@H](Cc2ccccc2)C[C@H](C)C(=O)O)c(C(C)C)s1 | < 0.00333 | 9.51 | 0.00338 | 0.0147 | < 0.00333 | > 27.4 µM | < 0.00333 | < 0.00333 | < 0.00333 | > 33.3 | < 0.00333 | > 33.3 µM | < 0.00333 | 0.161 | < 0.00333 | 5.05 | < 0.00333 | > 33.3 µM | < 0.00333 | > 33.3 µM
2 | COC(=O)c1ccc(NC(=O)Nc2ccc3oc(=O)c4ccccc4c3c2)cc1 | 18 | 41.9 | 28.1 | > 100 | 70.9 | > 100 µM | 0.714 | 14 | 28 | > 100 | 56.2 | > 100 µM | 31.8 | > 100 | 41.6 | > 100 | 40.3 | > 100 µM | 44.5 | > 100 µM
3 | CC/C=C\C/C=C\C[C@H](O)C/C=C1/C(=O)C=C[C@@H]1C/C=C\CCCC(=O)O | 2.47 | 5.83 | 2.96 | 9.1 | 6.56 | 21.4 µM | 2.93 | 10.1 | 3.78 | 11.4 | 3.17 | > 100 µM | 2.82 | 12 | 3.84 | > 100 | 16 | 34.7 µM | 3.6 | 43.1 µM
4 | Cn1c(O)c(C(/C=C/c2ccccc2)=NCCN=C(/C=C/c2ccccc2)c2c(O)n(C)c(=O)n(C)c2=O)c(=O)n(C)c1=O | 21.3 | > 50 | 10.2 | 29.5 | 19.9 | > 50 µM | 9.14 | 27.4 | 16.9 | > 50 | 14.6 | > 50 µM | 15 | > 50 | 10.1 | 24.6 | 19.9 | > 50 µM | 16.5 | > 50 µM
5 | O=C(O)CCC(=O)c1ccc2ccc3cccc4ccc1c2c34 | – | > 100 | – | > 100 | – | > 100 µM | – | > 100 | – | > 100 | – | > 100 µM | – | > 100 | – | > 100 | – | > 100 µM | – | > 100 µM
6 | O=C(Nc1ccc(Oc2ccc3nc(NC(=O)c4ccccc4)[nH]c3c2)cc1)Nc1cc(C(F)(F)F)ccc1F | 7.32 | > 25 | 1.19 | 8.57 | 1.09 | 7.8 µM | 0.738 | 3.29 | 1.38 | > 25 | 0.262 | > 7.59 µM | 0.997 | 9.29 | 1.59 | > 22.4 | 4.38 | 16.5 µM | 1.75 | > 25 µM
7 | COC(=O)[C@]12CC[C@@H](C)[C@H](C)[C@@H]1C1=CC[C@@H]3[C@@]4(C)C(C=O)=C[C@@](C)(COC(=O)c5ccco5)[C@@H]4C(=O)C[C@@]3(C)[C@]1(C)CC2 | 7.81 | > 100 | 4.06 | > 100 | 3.77 | > 100 µM | 3.58 | 15.4 | 7.92 | > 100 | 3.95 | > 100 µM | 0.286 | > 100 | 3.92 | > 100 | 43.1 | > 100 µM | 8.69 | > 100 µM
8 | CN(C)c1ccc(/C=C(\C#N)c2nc3ccccc3n2C)cc1 | 8.77 | 99 | 3.4 | 31.2 | 5.16 | > 90.6 µM | 3.77 | > 31.4 | 0.742 | > 33.3 | 0.249 | 10.8 µM | 2.42 | > 64.9 | 3.2 | 17.9 | 4.09 | 71.3 µM | 11.6 | > 100 µM
9 | O=[N+]([O-])c1ccc2c(N3CCC(CCCC4CCN(c5ncnc6cc([N+](=O)[O-])ccc56)CC4)CC3)ncnc2c1 | > 46 | > 86.2 | 6.33 | > 70.6 | 5.29 | > 100 µM | 17.8 | > 100 | 21.7 | > 86.4 | 0.217 | > 100 µM | > 49 | > 100 | 23.9 | > 100 | > 46.3 | > 100 µM | > 55.9 | > 100 µM
10 | Oc1c(CN2CCCC2)cc(COCc2ccc(Br)cc2)c2cccnc12 | 0.484 | 2.59 | 1.81 | 6.49 | 0.106 | 2.28 µM | 0.355 | 1.43 | 3.53 | 13.2 | 0.397 | 10.3 µM | 0.36 | 1.77 | 0.433 | 2.01 | 0.594 | 2.84 µM | 0.989 | 5.86 µM
11 | C/C(=N\N=C(\[Se])N1CCN(c2ccccn2)CC1)c1ccccn1 | 0.198 | 19.8 | – | 25 | 0.0408 | 21.3 µM | 0.00236 | – | 0.00203 | 14.2 | 0.00114 | – | 0.0254 | 16.7 | – | 16 | – | 9.82 µM | 0.375 | 21.3 µM
12 | CN(N=O)C(=O)N[C@@H](C=O)[C@@H](O)[C@H](O)[C@H](O)CO | > 750 | > 750 | – | > 750 | > 750 | 457 µM and > 750 µM | > 750 | > 750 | > 750 | > 750 | > 750 | 560 µM and > 750 µM | – | > 750 | > 750 | > 750 | > 750 | 622 µM and > 750 µM | > 750 | 603 µM and > 750 µM
13 | CN(C)c1ccc(/C=C2\N=C(c3ccc([N+](=O)[O-])cc3)OC2=O)cc1 | – | > 100 | – | > 100 | – | > 100 µM | – | 87.9 | – | > 100 | – | > 100 µM | – | > 100 | – | > 100 | – | > 100 µM | – | > 100 µM
